Data published in patent US11931330B2, “Composition for promoting skeletal muscle activity via induction of mitochondrial biogenesis comprising of azelaic acid as an active ingredient” (Korea University Research and Business Foundation, priority 2018, dated 2024).

Tests used:
Hepa1c1c-7 cells = assay: MTT assay, cytotoxicity of azelaic acid; format: cell-based; conditions: 0 to 500 μM, 24 hours, compared to the control group
Procedure: To evaluate cytotoxicity of an azelaic acid, an MTT assay was performed. The MTT assay is a test method utilizing the ability of mitochondria to reduce MTT tetrazolium, which is a yellow water-soluble substrate, to non-water-soluble MTT formazan showing a blue-violet color by a dehydrogenase. The MTT reagent was prepared by being diluted in phosphate buffered saline (PBS) at a concentration of 2 to 5 mg/mL. Hepalcic-7 cells used in this experiment were purchased from the Korean Cell Line Bank, and cultured in a minimum essential medium Eagle alpha modification medium (MEM-alpha, Hyclone) supplemented with 10% FBS and 1% PEST. For this experiment, the Hepa1c1c-7 cells (4×10^4 cell/mL) were seeded into a 96-well plate and incubated at 37° C. under 5% CO2 for 24 hours, and then incubated for 24 hours by adding an azelaic acid in a concentration range of 0 to 500 μM. Afterward, each sample was treated with 100 μL of the MTT reagent (4 mg/mL), incubated at 37° C. under 5% CO2 for 4 hours and treated with 100 μL of dimethyl sulfoxide (DMSO), followed by measuring absorbance at 540 nm. Since the absorbance level is proportional to a cell count, a cell death effect caused by toxicity may be quantified.

PGC-1α = PGC-1α gene and protein expression in differentiated C2C12 cells (qPCR, immunoblotting); format: cell-based, murine; conditions: 50 μM, 24 hours, compared to DMSO control
Procedure: (§1) Murine skeletal muscle cells, C2C12 cells, were purchased from the Korean Cell Line Bank. The cells were cultured using a Dulbecco's modified Eagle's medium (DMEM) supplemented with 20% fetal bovine serum (FBS; HyClone, USA) and 1% antibiotics (penicillin/streptomycin). When the cells reached 50% confluency (the degree of proliferation) under 5% CO2 (v/v) at 37° C., the cells were subcultured and maintained.
(§2) To differentiate the cells, the medium was replaced with DMEM containing 2% horse serum (HyClone), and after 7 days of differentiation, the cells were used in the experiment.
C2C12 cells differentiated for 7 days as described in Example 2-1 were treated with 12.5, 25 or 50 μM of an azelaic acid. […]
qPCR was performed to synthesize cDNA using RNA extracted from cells grown in a culture medium and then treated with 300 μL of the RNAiso plus reagent per well. […] A gene expression level was analyzed using the iQ5 Cycler System (Bio-Rad, USA).
Protein extraction was performed using an RIPA buffer (10 mM Tris-HCl, pH 7.5, 1% NP-40, 0.1% sodium deoxycholate, 0.1% SDS, 150 mM NaCl, and 1 mM EDTA), a Halt™ protease and a phosphatase inhibitor reagent (Thermo, USA). […] The resulting immunoblotting image was analyzed using the ChemiDoc™ touch imaging system and Image Lab 5.2 software (Bio-Rad, PA, USA).

C2C12 cells = assay: mtDNA level and mitochondrial density (MitoTracker) in differentiated C2C12 cells; format: cell-based, murine
Procedure: as §1, §2
C2C12 cells differentiated for 7 days as described in Example 2-1 were treated with 12.5, 25 or 50 μM of an azelaic acid. After 24 hours, RNA and proteins were extracted according to the following method, and used in the experiment. For a control, instead of an azelaic acid, the same amount of DMSO was treated.
After treatment with azelaic acid, the change in mitochondrial density was detected using MitoTracker. C2C12 cells were treated with an azelaic acid for 24 hours, and then washed with PBS. Subsequently, a medium containing […] of MitoTracker, i.e., a green probe, was added thereto, and the cells were cultured for 30 minutes. The mitochondrial density was measured by quantifying wavelengths of a part binding to the tracker, which absorbs a wavelength at 490 nm and emits a wavelength at 516 nm, using SpectraMax. Image analysis was performed using a confocal microscope and Zeiss LSM700 version 3.2 software (Carl Zeiss, Germany).
The differentiated C2C12 cells were treated with azelaic acid, treated with 300 μL of a lysis buffer (20 mM EDTA, 100 mM Tris, 200 mM NaCl, 0.2% Triton X-100, 100 μg/mL) per well, and cultured at 37° C. for 90 minutes, and the extracted supernatant was treated with the same amount of isopropanol and 25 μL of a 4M NaCl solution. After storage at −20° C. overnight, distilled water (D.W.) was added to a pellet obtained by centrifugation (14,000 rpm, RT, 20 min), thereby extracting mtDNA. […] A gene expression level was analyzed using the iQ5 Cycler System (Bio-Rad, USA).

Olfr544 [1] = assay: PGC-1α expression in Scr siRNA normal and Olfr544 knockdown C2C12 cells; format: cell-based, murine; conditions: 50 μM
Procedure: (§3) The differentiated skeletal muscle cells, C2C12 cells, were transfected with 200 pmol of scramble (control) or Olfr544 siRNA duplex (Santa Cruz, USA) using the Lipofectamine 2000 reagent (Invitrogen, USA) for 6 hours. Subsequently, another transfection was performed for 10 to 12 hours. The transfected cells were used for RNA or protein extraction.
qPCR was performed to synthesize cDNA using RNA extracted from cells grown in a culture medium and then treated with 300 μL of the RNAiso plus reagent per well. Subsequently, the synthesized cDNA was subjected to qPCR using the Thunderbird TMSYBR® qPCR Mix reagent (Takara Bio Inc., Japan). A gene expression level was analyzed using the iQ5 Cycler System (Bio-Rad, USA).
(§4) Protein extraction was performed using an RIPA buffer (10 mM Tris-HCl, pH 7.5, 1% NP-40, 0.1% sodium deoxycholate, 0.1% SDS, 150 mM NaCl, and 1 mM EDTA), a Halt™ protease and a phosphatase inhibitor reagent (Thermo, USA). As primary antibodies, anti-α-tubulin (1:1000) and anti-PGC-1α (1:500; Santa Cruz Biotechnology, Santa Cruz, USA) were used. The resulting immunoblotting image was analyzed using the ChemiDoc™ touch imaging system and Image Lab 5.2 software (Bio-Rad, PA, USA).

Olfr544 [2] = assay: mtDNA and mitochondrial density in Scr siRNA normal and Olfr544 knockdown C2C12 cells; format: cell-based, murine
Procedure: as §3
(§5) The differentiated C2C12 cells were treated with azelaic acid, treated with 300 μL of a lysis buffer (20 mM EDTA, 100 mM Tris, 200 mM NaCl, 0.2% Triton X-100, 100 μg/mL) per well, and cultured at 37° C. for 90 minutes, and the extracted supernatant was treated with the same amount of isopropanol and 25 μL of a 4M NaCl solution. After storage at −20° C. overnight, distilled water (D.W.) was added to a pellet obtained by centrifugation (14,000 rpm, RT, 20 min), thereby extracting mtDNA. Afterward, 2 μl of DNA, 10 μl of the SYBR green PCR master mix, 0.5 μL of each of a forward primer and a reverse primer having a concentration of 10 pmol, and 6.6 μL of sterile distilled water were mixed, and qPCR was performed using the Thunderbird TMSYBR® qPCR Mix reagent (Takara Bio Inc., Japan). A gene expression level was analyzed using the iQ5 Cycler System (Bio-Rad, USA).
The change in mitochondrial DNA content and abundance were determined using MitoTracker. Olfr544 siRNA-transfected cells were treated with an azelaic acid at a concentration of 50 μM for 24 hours, and then washed with PBS. Afterward, a medium containing 200 nM of the MitoTracker green probe was added to the cells, and the cells were cultured for 30 minutes. The mitochondrial density was measured by quantifying wavelengths of a part binding to the tracker, which absorbs a wavelength at 490 nm and emits a wavelength at 516 nm, using SpectraMax. The images were obtained by the Zeiss LSM700 confocal microscope, and then analyzed using the Zeiss LSM700 version 3.2 software (Carl Zeiss, Germany)

Olfr544 [3] = assay: Immunoblotting of pCREB, pERK1/2 and LC3II/LC3I in normal and Olfr544 knockdown C2C12 cells; format: cell-based, murine
Procedure: The differentiated skeletal muscle cells, C2C12 cells, were transfected with 200 pmol of scramble (control) or Olfr544 siRNA (Santa Cruz, USA) using the Lipofectamine 2000 reagent (Invitrogen, USA) for 6 hours. Subsequently, one more transfection was performed for 10 to 12 hours. After 24 hours, the transfected cells were treated with an azelaic acid and used for protein extraction.
as §4, with “antibodies, anti-CREB (1:250), anti-p-CREB (Ser133; 1:500), anti-β-actin (1:1000),” for “antibodies,”, “(1:1000), anti-ERK1/2 (1:500), anti-p-ERK1/2 (Thr53,54, 1:500),” for “(1:1000)”, “used. In addition, anti-LC3B (1:500) was purchased from Novus Biologicals (Novus Biologicals, USA).” for “used.”

[4] = test system: muscle tissue of HFD-induced obese mice; assay: Oral administration for 6 weeks to HFD-induced obese normal and Olfr544 knockout mice, muscle tissue qPCR and mtDNA; format: in vivo, mouse; conditions: oral 100 mg/kg
Procedure: (§6) 8-week-old ICR male […] and C57BL/6J were purchased from Samtako (Gyeonggi-do, Seoul), and Olfr544 knockout mice from which exon 2 (161-428 bp) of an Olfr544 gene was removed using a CRISPR-Cas9 system were purchased from Macrogen (Seoul, Korea). All animal experiments were carried out in accordance with the experimental method (Protocol No. KUIACUC-2016-97) approved by the Animal Experiment Ethics Committee at Korea University. In the breeding environment, a 12-hour light cycle, a room temperature of 25 to 31° C., and relative humidity of […] were maintained. The mice were freely fed a 60% high-fat diet, and randomly divided into 4 groups (n=7, two groups for normal mice, and the other two groups for knockout (KO) mice). For exact Olfr544 activation, the mice were fasted overnight, and then intraperitoneally injected with an azelaic acid (100 mg/kg of body weight). For a control, the same amount of PBS was intraperitoneally injected. In an experiment for long-term administration of an azelaic acid, the azelaic acid was orally administered at a dose of 100 mg/kg of body weight. During the last week of the experimental period (6 weeks), the mice fasted for 16 hours were anesthetized and sacrificed. The collected muscle tissue was put into a freezing tube, immediately put into liquid nitrogen, and then stored at −80° C.
cDNA was synthesized using RNA extracted by adding the RNAiso plus reagent to murine muscle cells. Subsequently, the synthesized cDNA was subjected to qPCR using the Thunderbird TMSYBR® qPCR Mix reagent (Takara Bio Inc., Japan). A gene expression level was analyzed using the iQ5 Cycler System (Bio-Rad, USA).
as §5, with “Murine muscle” for “The differentiated C2C12”, “with” for “with azelaic acid, treated with 300 μL of”, “μg/mL),” for “μg/mL) per well,”

muscle tissue of mice = assay: Intraperitoneal injection to normal and Olfr544 knockout mice, muscle tissue protein expression; format: in vivo, mouse; conditions: intraperitoneal 100 mg/kg; for pERK/ERK protein expression increase in muscle: compared with control
Description: FIG. 7A to FIG. 7E are diagrams showing mechanisms of promoting mitochondrial biogenesis according to Olfr544 activity of an azelaic acid in mice (FIG. 7A: the images showing pCREB, CREB, PGC-1α, ERK1/2, pERK1/2 and LC3 proteins expression, FIG. 7B: analysis for pCREB and CREB protein expression levels, FIG. 7C: analysis for PGC-1α protein expression per an azelaic acid treatment time, FIG. 7D: analysis for pERK and ERK protein expression levels, and FIG. 7E: analysis for LC3 protein expression per an azelaic acid treatment time in muscle tissue extracted 30 and 120 minutes after an azelaic acid is intraperitoneally injected into normal mice and Olfr544 KO mice).
as §6

[5] = Scr siRNA-transfected normal C2C12 cells
[6] = Olfr544 knockdown C2C12 cells, 50 μM, 24 hours
[7] = normal mice, 30 minutes after injection
[8] = normal mice, 120 minutes after injection

O=C(O)CCCCCCCC(=O)O [azelaic acid, nonanedioic acid]
toxicity (cell viability, MTT assay) (Hepa1c1c-7 cells): toxicity was not observed at any concentration | PGC-1α gene expression (PGC-1α): increased | PGC-1α protein expression (PGC-1α): increased | mitochondrial density (MitoTracker quantification) (C2C12 cells; 50 μM, 24 hours): significantly increased | mtDNA level, increase over control (C2C12 cells; 50 μM, 24 hours): about 2.5 fold | mitochondrial density, MitoTracker images under confocal fluorescence microscopy (C2C12 cells; treated group compared to control group): substantial increases | PGC-1α mRNA level (Olfr544 [1]; Olfr544 knockdown C2C12 cells): this effect is not shown | PGC-1α protein level (Olfr544 [1]; Olfr544 knockdown C2C12 cells): this effect is not shown | PGC-1α mRNA level (Olfr544 [1]; [5]): significantly increases | PGC-1α protein level (Olfr544 [1]; [5]): significantly increases | mitochondrial density (quantification) (Olfr544 [2]; C2C12 normal cells, azelaic acid (50 µM)): enrichment of mitochondria | mitochondrial density change (Olfr544 [2]; [6]): no changes | mtDNA change (Olfr544 [2]; [6]): no changes | mtDNA increase (Olfr544 [2]; azelaic acid-treated normal C2C12 cells, 50 μM, 24 hours): about 1.6 fold | LC3II/LC3I protein expression (Olfr544 [3]; Olfr544 knockdown C2C12 cells): this effect disappeared | pCREB expression change (Olfr544 [3]; Olfr544 knockdown C2C12 cells): no change | pCREB expression increase (Olfr544 [3]; normal (Scr siRNA) C2C12 cells): about 2 fold | LC3II/LC3I protein expression increase (Olfr544 [3]; normal C2C12 cells, compared to the control group): about 3 fold | phosphorylated ERK1/2 protein expression increase (Olfr544 [3]; skeletal muscle cells (C2C12)): 1.5 fold | PGC-1α mRNA expression in muscle ([4]; Olfr544 knockout HFD mice): no changes | Tfa gene expression in muscle ([4]; Olfr544 knockout HFD mice): no change | mt DNAs in muscle ([4]; Olfr544 knockout HFD mice): no change | Tfa gene expression increase in muscle ([4]; normal HFD mice): about 3.3 fold | PGC-1α mRNA expression increase in muscle ([4]; normal HFD mice, compared to control group): about 1.9 fold | mt DNAs in muscle ([4]; normal HFD mice, compared to non-administered mice): increased | LC3II/LC3I protein expression in muscle (muscle tissue of mice; Olfr544 knockout mice): no change | pERK/ERK protein expression in muscle (muscle tissue of mice; Olfr544 knockout mice): no change | LC3II/LC3I protein expression increase in muscle (muscle tissue of mice; [7]): 1.5 fold | pERK/ERK protein expression increase in muscle (muscle tissue of mice; [7]): 2.5 fold | LC3II/LC3I protein expression in muscle (muscle tissue of mice; [8]): not changed | pERK/ERK protein expression increase in muscle (muscle tissue of mice; [8]): 2.8 fold
